Series [1] concerns HBV viral load in AD38 cells. Briefly: Viral load production in AD38 cells, quantitative PCR of the core sequence in supernatant. It counts as cell-based. As to conditions: Hepatitis B virus, 144 h, 10 μM compound, 6 days at 37° C., supernatant qPCR, relative to DMSO control; read-out: AD38 Viral Load (%) (VL with cmpd/VL in DMSO control) at 10 μM. (In general: Quantitative PCR measures a nucleic acid by following its amplification.)

The next series has as its system AD38 cells. Description: Viability of AD38 cells (Promega CellTiter-Glo). It counts as cell-based. As to conditions: 10 μM compound, 6 days, CellTiter-Glo luminescence normalized to DMSO control (100%). An outline of the steps:
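AD38 cells were seeded at 50,000/well on collagen-coated plates and treated with compound added as a 10× solution in 10% DMSO for 6 days at 37° C. Viability was measured by CellTiter-Glo luminescence in tetracycline-free medium with 2% FBS and 1% DMSO, and expressed as percent of DMSO control.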
Background: Cellular ATP, detected with luciferase, serves as a proxy for viable cell number.

Results on 35 molecules are retold here after US11814376B2, “Hepatitis b core protein modulators” (Assembly Biosciences, Inc., priority 2015, dated 2023).

Take `O=C(NCc1cnc(C(F)(F)F)s1)c1cc2c(cc1Cl)S(=O)(=O)c1ccccc1C(=O)N2` [compound 1934]: the activity at 10 µM in series [1] is 40%. Besides, the “AD38 Viability Normalized Result (cmpd/DMSO %) at 10 μM” value in the series on AD38 cells is recorded as 69%.

As to `N#Cc1ccc(-c2ncc(CNC(=O)c3cc4c(cc3Cl)S(=O)(=O)c3ccccc3C(=O)N4)s2)cc1` [compound 1935], the activity at 10 µM in series [1] worked out at 0.7%. Moreover, the “AD38 Viability Normalized Result (cmpd/DMSO %) at 10 μM” value with AD38 cells came out at 112%.

`O=C(NCc1cnc(C(F)(F)F)s1)c1cc2c(cc1C(F)(F)F)S(=O)(=O)c1ccccc1C(=O)N2` [compound 1936]: the activity at 10 µM in series [1] came out at 13.5%. In addition, the “AD38 Viability Normalized Result (cmpd/DMSO %) at 10 μM” value in the series on AD38 cells was 94%.

As for `Cc1c(C(=O)NCc2cnc(C(F)(F)F)s2)ccc2c1NC(=O)c1ccccc1O2` [compound 1941], in series [1], the activity at 10 µM turned out to be 5.2%. Besides, in the series on AD38 cells, the “AD38 Viability Normalized Result (cmpd/DMSO %) at 10 μM” value is 84%.

Turning to `Cc1c(C(=O)NCc2cnc(-c3ccc(C#N)cc3)s2)ccc2c1NC(=O)c1ccccc1O2` [compound 1942], the activity at 10 µM in series [1] stood at 3%. For the same molecule, the “AD38 Viability Normalized Result (cmpd/DMSO %) at 10 μM” value in the series on AD38 cells worked out at 106%.

On to `CNC(=O)c1ccc(-c2ncc(CNC(=O)c3ccc4c(c3)NC(=O)c3ccccc3S4(=O)=O)s2)cc1` [compound 1943], for which the activity at 10 µM in series [1] is 1.9%. Also, in the series on AD38 cells, the “AD38 Viability Normalized Result (cmpd/DMSO %) at 10 μM” value stood at 98%.

On to `CN(C)C(=O)c1ccc(-c2ncc(CNC(=O)c3ccc4c(c3)NC(=O)c3ccccc3S4(=O)=O)s2)cc1` [compound 1944], for which the activity at 10 µM in series [1] was 2.5%. The “AD38 Viability Normalized Result (cmpd/DMSO %) at 10 μM” value in the series with AD38 cells stood at 93%.

With `CC(C)(C)NC(=O)c1ccc(-c2ncc(CNC(=O)c3ccc4c(c3)NC(=O)c3ccccc3S4(=O)=O)s2)cc1` [compound 1947], in series [1], the activity at 10 µM turned out to be 2.3%. Besides, the “AD38 Viability Normalized Result (cmpd/DMSO %) at 10 μM” value with AD38 cells is 101%.

In the case of `O=C(NCc1cnc(-c2ccc(C(=O)NC3CC3)cc2)s1)c1ccc2c(c1)NC(=O)c1ccccc1S2(=O)=O` [compound 1949], in series [1], the activity at 10 µM was 2.9%. Also, in the series with AD38 cells, the “AD38 Viability Normalized Result (cmpd/DMSO %) at 10 μM” value amounted to 99%.

Turning to `O=C1CCc2cc(-c3ncc(CNC(=O)c4ccc5c(c4)NC(=O)c4ccccc4S5(=O)=O)s3)ccc2N1` [compound 1951], the activity at 10 µM in series [1] was 1.8%. The “AD38 Viability Normalized Result (cmpd/DMSO %) at 10 μM” value with AD38 cells was determined as 101%.

Consider `O=C(NCc1cnc(-c2ccc(-n3cccn3)cc2)s1)c1ccc2c(c1)NC(=O)c1ccccc1S2(=O)=O` [compound 1952, N-((2-(4-(1H-pyrazol-1-yl)phenyl)thiazol-5-yl)methyl)-11-oxo-10, 11-dihydrodibenzo [b, f] [1, 4] thiazepine-8-carboxamide 5,5-dioxide], for which the activity at 10 µM in series [1] came to 0.8%. For the same molecule, the “AD38 Viability Normalized Result (cmpd/DMSO %) at 10 μM” value in the series on AD38 cells is on record as 106%.

Regarding `O=C(NCc1cnc(-c2ccc(-c3cc[nH]n3)cc2)s1)c1ccc2c(c1)NC(=O)c1ccccc1S2(=O)=O` [compound 1953], the activity at 10 µM in series [1] was determined as 0.4%. In the series on AD38 cells, the “AD38 Viability Normalized Result (cmpd/DMSO %) at 10 μM” value is recorded as 118%.

Regarding `O=C(NCc1cnc(-c2ccc(-c3nccs3)cc2)s1)c1ccc2c(c1)NC(=O)c1ccccc1S2(=O)=O` [compound 1954], the activity at 10 µM in series [1] was 0.5%. The “AD38 Viability Normalized Result (cmpd/DMSO %) at 10 μM” value with AD38 cells was 106%.

With `O=C(NCc1cnc(-c2cncs2)s1)c1ccc2c(c1)NC(=O)c1ccccc1S2(=O)=O` [compound 1956], the activity at 10 µM in series [1] came out at 2.3%. For the same molecule, the “AD38 Viability Normalized Result (cmpd/DMSO %) at 10 μM” value in the series on AD38 cells amounted to 88%.

Consider `O=C(NCc1cnc(-c2cnco2)s1)c1ccc2c(c1)NC(=O)c1ccccc1S2(=O)=O` [compound 1957], for which the activity at 10 µM in series [1] is 1.5%. The “AD38 Viability Normalized Result (cmpd/DMSO %) at 10 μM” value in the series with AD38 cells amounted to 94%.

For the molecule `O=C(NCc1cnc(-c2ncco2)s1)c1ccc2c(c1)NC(=O)c1ccccc1S2(=O)=O` [compound 1958], in series [1], the activity at 10 µM turned out to be 1.5%. Besides, the “AD38 Viability Normalized Result (cmpd/DMSO %) at 10 μM” value in the series on AD38 cells is on record as 91%.

For `O=C(NCc1cnc(-c2cc[nH]n2)s1)c1ccc2c(c1)NC(=O)c1ccccc1S2(=O)=O` [compound 1959], the activity at 10 µM in series [1] came out at 5%. Also, in the series on AD38 cells, the “AD38 Viability Normalized Result (cmpd/DMSO %) at 10 μM” value is recorded as 92%.

In the case of `O=C(NCc1cnc(-n2cccn2)s1)c1ccc2c(c1)NC(=O)c1ccccc1S2(=O)=O` [compound 1960], the activity at 10 µM in series [1] stood at 0.8%. Also, the “AD38 Viability Normalized Result (cmpd/DMSO %) at 10 μM” value with AD38 cells is 106%.

Take `NC(=O)c1ccc(-c2ncc(CNC(=O)c3ccc4c(c3)NC(=O)c3ccccc3S4(=O)=O)s2)c(F)c1` [compound 1970, N-((2-(4-carbamoyl-2-fluorophenyl)thiazol-5-yl)methyl)-11-oxo-10, 11-dihydrodibenzo [b, f] [1, 4] thiazepine-8-carboxamide 5,5-dioxide]: in series [1], the activity at 10 µM came out at 1.5%. In the series on AD38 cells, the “AD38 Viability Normalized Result (cmpd/DMSO %) at 10 μM” value came to 121%.

With `Cc1c(C(=O)NCc2cnc(-c3ccc(C#N)cc3F)s2)ccc2c1NC(=O)c1ccccc1S2(=O)=O` [compound 1971], the activity at 10 µM in series [1] amounted to 7%. Moreover, the “AD38 Viability Normalized Result (cmpd/DMSO %) at 10 μM” value with AD38 cells is recorded as 87%.

Regarding `O=C(NCc1cnc(N2C[C@H](O)CC[C@@H](O)C2)s1)c1ccc2c(c1)NC(=O)c1ccccc1S2(=O)=O` [compound 1972], the activity at 10 µM in series [1] came out at 23.5%. Further, in the series on AD38 cells, the “AD38 Viability Normalized Result (cmpd/DMSO %) at 10 μM” value is reported as 100%.

Take `O=C1CCN(c2ncc(CNC(=O)c3ccc4c(c3)NC(=O)c3ccccc3S4(=O)=O)s2)CCN1` [compound 1973]: in series [1], the activity at 10 µM was 33.7%. The “AD38 Viability Normalized Result (cmpd/DMSO %) at 10 μM” value with AD38 cells came out at 100%.

Take `CN1c2ccc(C(=O)NCc3cnc(-c4ccc(C#N)cc4)s3)cc2NC(=O)c2ccccc21` [compound 1974]: in series [1], the activity at 10 µM worked out at 15.3%. For the same molecule, the “AD38 Viability Normalized Result (cmpd/DMSO %) at 10 μM” value in the series on AD38 cells amounted to 103%.

As to `CCN1c2ccc(C(=O)NCc3cnc(-c4ccc(C#N)cc4)s3)cc2NC(=O)c2ccccc21` [compound 1975], the activity at 10 µM in series [1] was found to be 1%. For the same molecule, the “AD38 Viability Normalized Result (cmpd/DMSO %) at 10 μM” value in the series with AD38 cells is given as 63%.

Take `CC1(C)CCN(c2ncc(CNC(=O)c3ccc4c(c3)NC(=O)c3ccccc3S4(=O)=O)s2)C1` [compound 1981]: the activity at 10 µM in series [1] was found to be 0.2%. Further, the “AD38 Viability Normalized Result (cmpd/DMSO %) at 10 μM” value with AD38 cells turned out to be 105%.

Regarding `Cl.NCCCOc1ccc(-c2ncc(CNC(=O)c3ccc4c(c3)NC(=O)c3ccccc3S4(=O)=O)s2)cc1` [compound 1988, N-((2-(4-(3-aminopropoxy)phenyl)thiazol-5-yl)methyl)-11-oxo-10, 11-dihydrodibenzo [b, f] [1, 4] thiazepine-8-carboxamide 5,5-dioxide hydrochloride], in series [1], the activity at 10 µM was found to be 1.3%. Also, the “AD38 Viability Normalized Result (cmpd/DMSO %) at 10 μM” value in the series on AD38 cells amounted to 103%.

With `CNCCCOc1ccc(-c2ncc(CNC(=O)c3ccc4c(c3)NC(=O)c3ccccc3S4(=O)=O)s2)cc1` [compound 1989, N-((2-(4-(3-(methylamino)propoxy)phenyl)thiazol-5-yl)methyl)-11-oxo-10, 11-dihydrodibenzo [b, f] [1, 4] thiazepine-8-carboxamide 5,5-dioxide], in series [1], the activity at 10 µM turned out to be 2.5%. The “AD38 Viability Normalized Result (cmpd/DMSO %) at 10 μM” value with AD38 cells is reported as 90%.

For the molecule `CC(C)(C)NCCCOc1ccc(-c2ncc(CNC(=O)c3ccc4c(c3)NC(=O)c3ccccc3S4(=O)=O)s2)cc1` [compound 1990, N-((2-(4-(3-(tert-butylamino)propoxy)phenyl)thiazol-5-yl)methyl)-11-oxo-10, 11-dihydrodibenzo [b, f] [1, 4] thiazepine-8-carboxamide 5,5-dioxide], the activity at 10 µM in series [1] is 4.1%. Further, the “AD38 Viability Normalized Result (cmpd/DMSO %) at 10 μM” value with AD38 cells amounted to 98%.

Regarding `CC(=O)NCCCOc1ccc(-c2ncc(CNC(=O)c3ccc4c(c3)NC(=O)c3ccccc3S4(=O)=O)s2)cc1` [compound 1991], the activity at 10 µM in series [1] turned out to be 2%. The “AD38 Viability Normalized Result (cmpd/DMSO %) at 10 μM” value in the series on AD38 cells is listed as 98%.

On to `O=C(NCc1cnc(-c2ccc(OCCCN3CCCCC3)cc2)s1)c1ccc2c(c1)NC(=O)c1ccccc1S2(=O)=O` [compound 1992], for which the activity at 10 µM in series [1] amounted to 5%. Further, the “AD38 Viability Normalized Result (cmpd/DMSO %) at 10 μM” value in the series with AD38 cells amounted to 89%.

For `O=C(NCc1cnc(-c2ccc(OCCCN3CCOCC3)cc2)s1)c1ccc2c(c1)NC(=O)c1ccccc1S2(=O)=O` [compound 1993], the activity at 10 µM in series [1] worked out at 0.5%. For the same molecule, in the series on AD38 cells, the “AD38 Viability Normalized Result (cmpd/DMSO %) at 10 μM” value is 96%.

Take `CN(CCCOc1ccc(-c2ncc(CNC(=O)c3ccc4c(c3)NC(=O)c3ccccc3S4(=O)=O)s2)cc1)CC(F)(F)F` [compound 1994]: in series [1], the activity at 10 µM is 0.9%. The “AD38 Viability Normalized Result (cmpd/DMSO %) at 10 μM” value in the series on AD38 cells is listed as 92%.

Consider `O=C(NCc1cnc(-c2ccc(OCC3CNC3)cc2)s1)c1ccc2c(c1)NC(=O)c1ccccc1S2(=O)=O.O=C(O)C(F)(F)F` [compound 1995, N-((2-(4-(azetidin-3-ylmethoxy)phenyl)thiazol-5-yl)methyl)-11-oxo-10, 11-dihydrodibenzo [b, f] [1, 4] thiazepine-8-carboxamide 5,5-dioxide TFA salt], for which, in series [1], the activity at 10 µM came to 16.3%. Moreover, the “AD38 Viability Normalized Result (cmpd/DMSO %) at 10 μM” value in the series with AD38 cells is 103%.

As for `Cl.O=C(NCc1cnc(-c2ccc(OCCC3CCCN3)cc2)s1)c1ccc2c(c1)NC(=O)c1ccccc1S2(=O)=O` (stereo not shown) [compound 1996, 11-oxo-N-((2-(4-(2-(pyrrolidin-2-yl)ethoxy)phenyl)thiazol-5-yl)methyl)-10, 11-dihydrodibenzo [b, f] [1, 4] thiazepine-8-carboxamide 5,5-dioxide hydrochloride], in series [1], the activity at 10 µM is 17.4%. The “AD38 Viability Normalized Result (cmpd/DMSO %) at 10 μM” value in the series with AD38 cells stood at 100%.

As for `Cl.O=C(NCc1cnc(-c2ccc(OCC3CCCNC3)cc2)s1)c1ccc2c(c1)NC(=O)c1ccccc1S2(=O)=O` (stereo not shown) [compound 1997, 11-oxo-N-((2-(4-(piperidin-3-ylmethoxy)phenyl)thiazol-5-yl)methyl)-10, 11-dihydrodibenzo [b, f] [1, 4] thiazepine-8-carboxamide 5,5-dioxide hydrochloride], the activity at 10 µM in series [1] turned out to be 9.7%. Besides, the “AD38 Viability Normalized Result (cmpd/DMSO %) at 10 μM” value in the series with AD38 cells is 104%.
